The results in this text go back to PMC9082524, “Aromatic heterocycle galectin-1 interactions for selective single-digit nM affinity ligands” (RSC Advances, 2018).

Read-outs that look alike come from different tables or passages of the source.

For data set [1], the target named is T1, Human galectin-1 (Homo sapiens, UniProt P09382). In words: Competitive fluorescence polarization, galectin-1 with high-affinity fluorescent probe 25. On the set-up: made in house. Conditions: for Kd / Kd Galectin-1: galectin-1 50 nM, probe 25 1 nM, 100 nM BSA, rt, average ± SEM; for Galectin-3/galectin-1: ratio of Kd values, Table 2 (thiodigalactosides), galectin-1 selectivity over galectin-3. Format: binding. A general note: In fluorescence polarisation assays a small probe gives low polarisation when free and higher when bound to something large.
T1 sequence (P09382 whole entry): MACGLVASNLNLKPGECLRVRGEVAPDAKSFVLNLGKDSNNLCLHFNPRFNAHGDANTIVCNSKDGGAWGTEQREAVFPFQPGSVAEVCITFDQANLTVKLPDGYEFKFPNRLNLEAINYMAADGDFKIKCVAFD

Data set [2] deals with T2, galectin-3 (Homo sapiens, UniProt P17931). The data set can be described thus: Competitive fluorescence polarization, galectin-3 with improved-affinity probe (as described in ref 15). Conditions: average ± SEM. On the set-up: made in house. The data set is classed as binding.
T2 sequence (P17931 whole entry): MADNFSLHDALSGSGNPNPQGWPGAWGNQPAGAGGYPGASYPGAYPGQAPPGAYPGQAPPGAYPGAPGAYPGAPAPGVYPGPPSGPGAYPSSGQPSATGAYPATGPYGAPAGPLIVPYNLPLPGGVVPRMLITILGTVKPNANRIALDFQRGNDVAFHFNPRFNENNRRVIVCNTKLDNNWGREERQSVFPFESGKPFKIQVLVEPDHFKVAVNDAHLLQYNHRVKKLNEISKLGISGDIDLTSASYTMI
The test system of data set [3] is MCF-7. The data set can be described thus: MTT cytotoxicity assay, MCF-7. Conditions: MCF-7 tumor cell line, 72 h, 0.04 μM to 40 μM. (In general: Tetrazolium assays rely on reduction of a dye to a coloured formazan, in cell work by metabolically active cells.)
Data set [4] relates to JIMT-1. The data set can be described thus: MTT cytotoxicity assay, JIMT-1. Conditions: JIMT-1 tumor cell line, 72 h, 0.04 μM to 40 μM.
For data set [5], the system named is MCF-10A. The data set can be described thus: MTT cytotoxicity assay, MCF-10A. Conditions: MCF-10A normal cell line, 72 h, 0.04 μM to 40 μM.
The target of data set [6] is T1, Human galectin-1. In words: Competitive fluorescence polarization, galectin-1 (performed as described in ref 13). Conditions: for Galectin-3/galectin-1: ratio of Kd values, Table 1 (monogalactosides).
Data set [7] has as its target T2, galectin-3. The data set can be described thus: Competitive fluorescence polarization, galectin-3 (performed as described in ref 13).
In data set [8] the test system is JIMT-1.
Data set [9] deals with MCF-7.
Data set [10] concerns MCF-10A.

With `OC[C@H]1O[C@@H](S[C@@H]2O[C@H](CO)[C@H](O)[C@H](n3cc(-c4ncc[nH]4)nn3)[C@H]2O)[C@H](O)[C@@H](n2cc(-c3ncc[nH]3)nn2)[C@H]1O` [compound 20, 1,1′-Sulfanediyl-bis-{3-deoxy-3-[4-(1H-imidazol-2-yl)-1H-1,2,3-triazol-1-yl]-β-D-galactopyranoside}], in data set [1], the “Increased galectin-1 selectivity compared to corresponding monogalactoside” value was 2 fold; the “Lower affinity for galectin-1 than thiophene 1” value was determined as 4 fold; the Kd (as a rule, the constant that tells how readily two partners part at equilibrium) is 0.025 ± 0.002 µM; the Galectin-3/galectin-1 came to 7.2. The molecule further returned an equilibrium dissociation constant (Kd) in data set [2] of 0.18 ± 0.01 µM.
As for `O=C(O)CS[C@@H]1O[C@H](CO)[C@H](O)[C@H](n2cc(-c3ccsc3)nn2)[C@H]1O` [compound 12, Carboxymethyl 3-deoxy-3-[4-(thien-3-yl)-1H-1,2,3-triazol-1-yl]-1-thio-β-D-galactopyranoside], the Cytotoxicity result in [3], in data set [4] and in [5] was “non-cytotoxic” in each case. Besides, the Kd is 58 ± 4 µM in data set [6] and 200 ± 7 µM in [7]. Moreover, the Galectin-3/galectin-1 in data set [6] was determined as 3.4.
Turning to `Cc1ccc(S[C@@H]2O[C@H](CO)[C@H](O)[C@H](n3cc(-c4ncc[nH]4)nn3)[C@H]2O)cc1` [compound 8, p-Methylphenyl 3-deoxy-3-[4-(1H-imidazol-2-yl)-1H-1,2,3-triazol-1-yl]-1-thio-β-D-galactopyranoside], in [6], the Kd was 47 ± 3 µM and the Galectin-3/galectin-1 came to 4.7.
Turning to `OC[C@H]1O[C@@H](S[C@@H]2O[C@H](CO)[C@H](O)[C@H](n3cc(-c4nccs4)nn3)[C@H]2O)[C@H](O)[C@@H](n2cc(-c3ccc(F)c(F)c3)nn2)[C@H]1O` [compound 23, 3,3′-Dideoxy-3′-[4-(3,4-difluorophenyl)-1H-1,2,3-triazol-1-yl]-3-[4-(thiazol-2-yl)-1H-1,2,3-triazol-1-yl]-1,1′-sulfanediyl-di-β-D-galactopyranoside], in data set [1], the Kd was found to be 0.013 ± 0.001 µM and the Galectin-3/galectin-1 is reported as 0.14. This molecule yielded a Kd in data set [2] of 0.0018 ± 0.0002 µM.
Consider `Cc1ccc(S[C@@H]2O[C@H](CO)[C@H](O)[C@H](O)[C@H]2O)cc1` [compound 16, reference compound], for which the Galectin-3/galectin-1 in [6] stood at 0.2.
Consider `O=C(O)CS[C@@H]1O[C@H](CO)[C@H](O)[C@H](n2cc(-c3cncs3)nn2)[C@H]1O` [compound 15, Carboxymethyl 3-deoxy-3-[4-(thiazol-5-yl)-1H-1,2,3-triazol-1-yl]-1-thio-β-D-galactopyranoside], for which, in data set [6], the dissociation constant Kd is 180 ± 9 µM and the Galectin-3/galectin-1 is listed as 2.4. In data set [7], this molecule gave a Kd of 430 ± 20 µM.
Regarding `OC[C@H]1O[C@@H](S[C@@H]2O[C@H](CO)[C@H](O)[C@H](n3cc(-c4nccs4)nn3)[C@H]2O)[C@H](O)[C@@H](n2cc(-c3ccsc3)nn2)[C@H]1O` [compound 22, 3,3′-Dideoxy-3-[4-(thiazol-2-yl)-1H-1,2,3-triazol-1-yl]-3′-[4-(thien-3-yl)-1H-1,2,3-triazol-1-yl]-1,1′-sulfanediyl-di-β-D-galactopyranoside], in data set [1], the “Increased galectin-1 selectivity compared to corresponding monogalactoside” value is 2 fold, the Kd turned out to be 0.012 ± 0.001 µM and the Galectin-3/galectin-1 amounted to 5.1. The molecule further showed a Kd in data set [2] of 0.061 ± 0.003 µM.
Regarding `Cc1ccc(S[C@@H]2O[C@H](CO)[C@H](O)[C@H](n3cc(-c4c[nH]cn4)nn3)[C@H]2O)cc1` [compound 9, p-Methylphenyl 3-deoxy-3-[4-(1H-imidazol-4-yl)-1H-1,2,3-triazol-1-yl]-1-thio-β-D-galactopyranoside], in [6], the Kd came out at 140 ± 7 µM and the Galectin-3/galectin-1 worked out at 2.4.
With `Cc1ccc(S[C@@H]2O[C@H](CO)[C@H](O)[C@H](n3cc(-c4ccoc4)nn3)[C@H]2O)cc1` [compound 5, p-Methylphenyl 3-deoxy-3-[4-(furan-3-yl)-1H-1,2,3-triazol-1-yl]-1-thio-β-d-galactopyranoside], in [6], binding was put at a Kd of 120 ± 7 µM and the Galectin-3/galectin-1 was found to be 2.1.
For `Cc1ccc(S[C@@H]2O[C@H](CO)[C@H](O)[C@H](n3cc(C4CCCC4)nn3)[C@H]2O)cc1` [compound 4, p-Methylphenyl 3-deoxy-3-(4-cyclopentyl-1H-1,2,3-triazol-1-yl)-1-thio-β-D-galactopyranoside], in that order: 370 ± 30 µM and 2.6.
Turning to `Cc1ccc(S[C@@H]2O[C@H](CO)[C@H](O)[C@H](n3cc(-c4cccs4)nn3)[C@H]2O)cc1` [compound 6, p-Methylphenyl 3-deoxy-3-[4-(thien-2-yl)-1H-1,2,3-triazol-1-yl]-1-thio-β-D-galactopyranoside], the Cytotoxicity result in data set [8], in data set [9] and in [10] was “non-cytotoxic” each time. Moreover, the Kd in data set [6] turned out to be 61 ± 4 µM.
On to `O=C(O)CS[C@@H]1O[C@H](CO)[C@H](O)[C@H](n2cc(-c3cscn3)nn2)[C@H]1O` [compound 14, Carboxymethyl 3-deoxy-3-[4-(thiazol-4-yl)-1H-1,2,3-triazol-1-yl]-1-thio-β-D-galactopyranoside], for which the Cytotoxicity entry in data set [3], in [4] and in data set [5] was “non-cytotoxic” throughout. The dissociation constant (Kd) in data set [6] worked out at 62 ± 2 µM; in data set [7], 540 ± 30 µM. For the same molecule, the Galectin-3/galectin-1 in data set [6] turned out to be 8.7.
Consider `O=C(O)CS[C@@H]1O[C@H](CO)[C@H](O)[C@H](O)[C@H]1O` [compound 17, reference compound], for which, in data set [6], binding was put at a Kd of 430 ± 40 µM and the Galectin-3/galectin-1 is recorded as 4.2. This molecule also had a dissociation constant (Kd) in data set [7] of 1800 ± 100 µM.
For `O=C(O)CS[C@@H]1O[C@H](CO)[C@H](O)[C@H](n2cc(-c3nccs3)nn2)[C@H]1O` [compound 13, Carboxymethyl 3-deoxy-3-[4-(thiazol-2-yl)-1H-1,2,3-triazol-1-yl]-1-thio-β-D-galactopyranoside], the Cytotoxicity result in data set [3], in data set [4] and in data set [5] was “non-cytotoxic” in each case. Also, the Kd in data set [6] was found to be 43 ± 2 µM; in [7], 280 ± 7 µM.
`Cc1ccc(S[C@@H]2O[C@H](CO)[C@H](O)[C@H](n3cc(-c4ccsc4)nn3)[C@H]2O)cc1` [compound 7, p-Methylphenyl 3-deoxy-3-[4-(thien-3-yl)-1H-1,2,3-triazol-1-yl]-1-thio-β-D-galactopyranoside]: the Cytotoxicity entry in data set [8], in [9] and in data set [10] was “non-cytotoxic” each time. In data set [6], this molecule gave a Kd of 47 ± 2 µM.
In data set [1], `OC[C@H]1O[C@@H](S[C@@H]2O[C@H](CO)[C@H](O)[C@H](n3cc(-c4nccs4)nn3)[C@H]2O)[C@H](O)[C@@H](n2cc(-c3nccs3)nn2)[C@H]1O` [compound 19, 1,1′-Sulfanediyl-bis-{3-deoxy-3-[4-(thiazol-2-yl)-1H-1,2,3-triazol-1-yl]-β-D-galactopyranoside}] registered a dissociation constant (Kd) of 0.0084 ± 0.001 µM. Further, the “Kd Galectin-1” value in data set [1] was “single-digit”. Besides, the Cytotoxicity entry in data set [3], in data set [4] and in [5] was “non-cytotoxic” each time.
For `OC[C@H]1O[C@@H](S[C@@H]2O[C@H](CO)[C@H](O)[C@H](n3cc(-c4ccsc4)nn3)[C@H]2O)[C@H](O)[C@@H](n2cc(-c3ccsc3)nn2)[C@H]1O` [compound 1], the dissociation constant (Kd) in data set [1] came to 0.0061 ± 0.001 µM. For the same molecule, in data set [1], the “Kd Galectin-1” value is “single-digit”. The Cytotoxicity entry in data set [3], in data set [4] and in [5] was “non-cytotoxic” in each case.
